Results taken from paper PMC6493465 (Oncotarget, 2019).

Columns and labels:
[1] = tested on: MCL-1, BCL2L10, survivin and cPARP in MOLM-13 cells; assay: Western blot analysis of anti-apoptotic protein expression, MOLM-13; format: cell-based, human; conditions: MOLM-13, 24-hour treatment; gilteritinib 30 nM, AraC 100 nM, IDR 3 nM, Aza 1000 nM
Experimental: Cell lysates were prepared in radioimmunoprecipitation assay buffer (Thermo Fisher Scientific Inc., Rockford, IL) supplemented with phosphatase (Thermo Fisher Scientific Inc.) and protease inhibitors (Merck, Billerica, MA), electrophoresed on 4%–15% gels, and subsequently transferred to polyvinylidene difluoride membranes. The membranes were blocked using Blocking One (Nacalai Tesque Inc., Kyoto, Japan) for 1 hour and then incubated overnight with primary antibodies to MCL-1, BCL210, cPARP (all from Cell Signaling Technology, Danvers, MA, USA), survivin (R&D Systems, Inc., Minneapolis, MN), and α-actin (MilliporeSigma, Burlington, MA). The membranes were washed with TBS Tween-20 (TBS-T) buffer and incubated with appropriate horseradish peroxidase-linked secondary antibodies (Cell Signaling Technology Japan K.K.) for 1 hour at room temperature. After washing the membranes in TBS-T buffer, enhanced chemiluminescence Western Blotting Detection Reagent ECL-prime (GE Healthcare, Fairfield, CT) was applied. Signals were detected with a charge-coupled device camera (ImageQuant LAS4000; GE Healthcare); signal intensity was quantified using ImageQuant™ TL software (GE Healthcare).

MV4-11 cells [2] = assay: Antitumor effects in mice xenografted with MV4-11 cells; format: in vivo, mouse; conditions: MV4-11 xenograft; for Regression of Tumor / Inhibition of Tumor Growth: Day 21
Experimental: Four or five-week-old male nude mice (CanN.Cg-Foxn1nu/Crl/Crlj[nu/nu]; Charles River Laboratories Japan, Inc., Kanagawa, Japan) were maintained under specific pathogen-free conditions and received a standard diet and water supply throughout the study. All animal experimental procedures were performed in accordance with the Animal Ethics Committee of Astellas Pharma, Inc. For in vivo experiments, suspensions of MV4-11 and MOLM-13 cells in PBS at a concentration of 1 × 10^8 cells/mL were mixed with an equivalent volume of Matrigel® Basement Membrane Matrix, resulting in a final cell concentration of 5 × 10^7 cells/mL. The cells were subcutaneously injected into the flanks of mice at a concentration of 5 × 10^6 cells/0.1 mL/mouse. After tumor establishment, mice were divided into groups with similar mean tumor volume across groups.
Dosing volumes were 10 mL/kg for oral and intraperitoneal (IP) administration, and 5 or 10 mL/kg for intravenous (IV) administration. Treatment was administered once daily on designated days. The first day of treatment was designated as Day 0 and observation continued until Day 20 or 21 for mice xenografted with MV4-11 cells and Day 16 for mice xenografted with MOLM-13 cells. In mice xenografted with MV4-11 cells for experiments involving triple combination treatment, the control group received oral administration of vehicle (0.5% methylcellulose, Days 0–20), IP administration of vehicle (saline, Days 0–4), and IV administration of vehicle (saline, Days 0–2).
The AraC/DNR group received oral vehicle (0.5% methylcellulose, Days 0–20), IP AraC (50 mg/kg/day, Days 0–4), and IV DNR (2 mg/kg/day, Days 0–2). The AraC/IDR group received vehicle (Days 0–20), IP AraC (50 mg/kg/day, Days 0–4), and IV IDR (0.5 mg/kg/day, Days 0–2). […] For experiments involving Aza, the control group received oral vehicle (0.5% methylcellulose, Days 0–20) and IV vehicle (saline, Days 0–4). The Aza group received oral vehicle (0.5% methylcellulose, Days 0–20) and IV Aza (3 mg/kg/day, Days 0–4). […] For mice that received chemotherapy only, administration schedules for each agent were the same as those described in the triple combination groups.
Mice with established tumors were selected and divided into groups on Day −1 or Day 0, so that the mean tumor volumes were similar across groups. Body weights and tumor volumes assessed on Day −1 were designated as Day 0 values. Body weight and tumor diameter were measured for each experimental group; antitumor activity was expressed as the percent inhibition of tumor growth and the percent of tumor regression (further details are outlined in the Supplementary Materials). […] Complete regression was defined as no palpable or observable tumor. […]
Tumor evaluation 100 × (1 – [mean tumor volume of each group on the last day of observation] / [mean tumor volume of each
Body weight and tumor diameter were measured group on Day 0]) in xenografted nude mice xenografted with MV4-11 cells on the indicated days for each experimental group: 1. Treatments for pharmacokinetic assays […]
and 21. Body weight and tumor assessments obtained on with MV4-11 cells received one of the following Day −1 were designated as Day 0 (baseline) measurements. combination treatments: 1.
Tumor diameter was measured using a caliper and tumor 0.5% methylcellulose); 2. Oral methylcellulose (0.5%) in volume was determined by calculating the volume of an combination with IV IDR (0.5 mg/kg) and IP AraC (50 ellipsoid (ie, Length × Width2 × 0.5). The percent inhibition mg/kg); 3. […]
of tumor growth was calculated using the formula: kg) and IP AraC (50 mg/kg). For combination PK assays […]
on the last day of observation) – (tumor volume of each with MV4-11 received one of the following: […]
of each mouse on the last day of observation) – (tumor methylcellulose (0.5%) plus IV Aza (3 mg/kg); 3. Oral […]
The percent tumor regression was calculated using […]

MV4-11 cells [3] = assay: Annexin-V staining (apoptosis), MV4-11; format: cell-based, human; conditions: gilteritinib alone 3, 10 and 30 nM, 48 hours, vs vehicle
Experimental: MV4-11 cells were seeded in 12-well plates at a concentration of 2 × 10^5 cells/well and cultured overnight. […] MOLM-13 cells were seeded in 12-well plates at a concentration of 1 × 10^5 cells/well and cultured overnight.
Cells were harvested and incubated with Guava® Nexin Reagent (Merck Millipore Corporation, Billerica, MA). Annexin-V-positive cells were assessed using a Guava® PCA microcytometer (Merck Millipore Corporation); the percentage of annexin-V-positive cells (2000 cells per sample) was analyzed using CytoSoft™ software (Merck Millipore Corporation). Mean percentages of annexin-V-positive cells were derived from three independent experiments.

MV4-11 cells [4] = assay: Cell cycle analysis; format: cell-based, human; conditions: 24 hours, control 59.8%
Experimental: MV4-11 cells were seeded in 12-well plates (AGC Techno Glass Co. Ltd., Shizuoka, Japan) at a concentration of 2 × 10^5 cells/well and cultured overnight.
The cells were subsequently harvested and fixed in ice-cold 70% ethanol and maintained at 4°C. Following fixation, the cells were washed with phosphate-buffered saline (PBS) and were resuspended in Guava® Cell Cycle Reagent (Merck Millipore Corporation, Darmstadt, Germany). Cell cycle distribution was measured using a Guava® PCA microcytometer (Merck Millipore Corporation), and was analyzed in 5000 cells per sample using CytoSoft™ software (Merck Millipore Corporation). The mean percentages of cells in sub-G1, G1, S, and G2/M phases were derived from four independent assays.

[5] = Aza experiment: oral gilteritinib 3 mg/kg/day Days 0-20, IV Aza 3 mg/kg/day Days 0-4

SMILES	expression of MCL-1, BCL2L10, and survivin [1]	body weight on Day 21 between control and treatment groups (MV4-11 cells [2])	Regression of Tumor (MV4-11 cells [2]; Aza experiment)	Inhibition of Tumor Growth (MV4-11 cells [2]; [5])	Regression of Tumor (MV4-11 cells [2]; AraC/DNR experiment)	Inhibition of Tumor Growth (MV4-11 cells [2]; AraC/DNR experiment: oral gilteritinib 3 mg/kg/day Days 0-20, IP AraC 50 mg/kg/day Days 0-4, IV DNR 2 mg/kg/day Days 0-2)	Regression of Tumor (MV4-11 cells [2]; AraC/IDR experiment)	Inhibition of Tumor Growth (MV4-11 cells [2]; AraC/IDR experiment: oral gilteritinib 3 mg/kg/day Days 0-20, IP AraC 50 mg/kg/day Days 0-4, IV IDR 0.5 mg/kg/day Days 0-2)	mean (±SEM) tumor weight on Day 21 (MV4-11 cells [2]; AraC/DNR experiment, control 1.234±0.150 g)	mean tumor weight on Day 21 (MV4-11 cells [2]; AraC/IDR experiment, control 1.64±0.12 g)	proportion of annexin-V-positive cells (MV4-11 cells [3])	mean proportion of MV4-11 cells in G1 phase (MV4-11 cells [4]; gilteritinib 3 nM)	mean proportion of MV4-11 cells in G1 phase (MV4-11 cells [4]; gilteritinib 10 nM)
Nc1ncn([C@@H]2O[C@H](CO)[C@@H](O)[C@H]2O)c(=O)n1 [Aza, Azacitidine]	little effect	No significant differences	0%	5%									
CCc1nc(C(N)=O)c(Nc2ccc(N3CCC(N4CCN(C)CC4)CC3)c(OC)c2)nc1NC1CCOCC1 [Gilteritinib]	strongly inhibited	No significant differences	0%	71%	0%	78%	0%	85%	0.441 ± 0.076 g	0.53 ± 0.09 g	significantly increased	69.0%	70.7%
